# Experimental data: US20140193802A1, “IDENTIFICATION OF AN ALTERED THERAPEUTIC SUSCEPTIBILITY TO ANTI-HCMV COMPOUNDS AND OF A RESISTANCE AGAINST ANTI-HCMV COMPOUNDS” (priority 2012, published 2014)
# Tests used:
# Assay in all cases: CPE-RA, letermovir-selected mutant
# Format in all cases: cell-based, human cytomegalovirus (HCMV)
# [1] = system: HCMV AD169 mutant rAIC246-2 (UL56 R369S); details: for EC50: Human betaherpesvirus 5, AD169, rAIC246-2 (UL56 R369S), CPE reduction assay, mean ± SD
# Procedure: (§1) HCMV Cytopathic Effect Reduction Assay (CPE-RA)
# (§2) CPE-RAs were performed basically as described elsewhere (HCMV replication assay). In brief, the addition of 2 μl test compound of 50, 5, 0.5, 0.05, 0.005, and 0.0005 mM DMSO stock solutions to 100 μl cell culture medium in duplicate was followed by serial 2-fold dilutions in 96-well microtiter plates. Each well was supplemented with 150 μl of either a suspension of 1×10^4 NHDF cells mixed with cell-free HCMV (multiplicity of infection (MOI), 0.03) or a suspension of 1×10^4 to 3×10^4 HCMV-infected and uninfected NHDF cells (MOI, 0.001 to 0.002). Non-infected and non-treated cells served as controls on each plate. Final compound concentrations ranged between 250 and 0.00005 μM. Plates were incubated for 6 to 7 days at 37° C. or until the virus control reached 100% CPE. A mixture containing 20% Giemsa stain (Merck) and 5% formalin solution (Merck) was added to the wells for fixation and staining. After extensive washing, plates were dried at 56° C. followed by visual evaluation using an overhead microscope (plaque magnifier; Tecnorama Zürich). Each assay was performed at least in triplicate, and standard deviations were calculated. The assay plate data were used to calculate the EC50 (CPE-RA), i.e., the concentration of drug that inhibits the CPE by 50% compared with an untreated virus-infected control.
# (§3) Drug-resistant HCMV AD169 mutants were selected by the single-step selection method or by serial passage of the virus in the presence of increasing concentration of Letermovir. Briefly, 5×10^3 AD169-infected NHDF cells/well (MOI, 0.03 PFU/cell) were seeded into the wells of 30 96-well microtiter plates. The infection was allowed to proceed under the exposure of 50 nM Letermovir (˜10×EC50) until a CPE developed in one or more of the compound-treated wells (indicative of resistant virus breakthrough). Non-infected and non-treated cells served as controls on each plate. Mutant virus amplification was accomplished after cultures achieved maximum CPE by the passage of cell-free supernatant virus in the presence of 50 nM Letermovir. The resultant Letermovir-resistant progeny virus mutants were plaque purified three times by limiting dilutions in the presence of Letermovir. The stability of resistance was tested by serially passaging plaque-purified viruses without selective pressure (8 to 10 times). The resistant phenotype of the mutants was confirmed by CPE reduction assays.
# [2] = system: HCMV AD169 mutant rAIC246-8 (UL56 C325Y); details: for EC50: Human betaherpesvirus 5, AD169, rAIC246-8 (UL56 C325Y), CPE reduction assay, mean ± SD
# Procedure: as §1, §2, §3
# [3] = system: HCMV AD169 mutant rAIC246-7 (UL56 L241P); details: for EC50: Human betaherpesvirus 5, AD169, rAIC246-7 (UL56 L241P), CPE reduction assay, mean ± SD
# Procedure: as §1, §2, §3
# [4] = system: HCMV AD169 mutant rAIC246-3 (UL56 C325Y); details: for EC50: Human betaherpesvirus 5, AD169, rAIC246-3 (UL56 C325Y), CPE reduction assay, mean ± SD
# Procedure: as §1, §2, §3
# [5] = system: HCMV AD169 mutant rAIC246-9 (UL56 R369G); details: for EC50: Human betaherpesvirus 5, AD169, rAIC246-9 (UL56 R369G), CPE reduction assay, mean ± SD
# Procedure: as §1, §2, §3
Compound,EC50 [1] [nM],Resistance index (RI) = letermovir-EC50 mutant virus/letermovir-EC50 wild-type virus ([1]; rAIC246-2 vs AD169),EC50 [2] [nM],Resistance index (RI) = letermovir-EC50 mutant virus/letermovir-EC50 wild-type virus ([2]; rAIC246-8 vs AD169),EC50 [3] [nM],Resistance index (RI) = letermovir-EC50 mutant virus/letermovir-EC50 wild-type virus ([3]; rAIC246-7 vs AD169),EC50 [4] [nM],Resistance index (RI) = letermovir-EC50 mutant virus/letermovir-EC50 wild-type virus ([4]; rAIC246-3 vs AD169),EC50 [5] [nM],Resistance index (RI) = letermovir-EC50 mutant virus/letermovir-EC50 wild-type virus ([5]; rAIC246-9 vs AD169)
"COc1cccc(N2CCN(C3=Nc4c(F)cccc4[C@H](CC(=O)O)N3c3cc(C(F)(F)F)ccc3OC)CC2)c1 [Letermovir, (S)-{8-fluoro-2-[4-(3-methoxyphenyl)-1-piperazinyl]-3-[2-methoxy-5-(trifluoromethyl)phenyl]-3,4-dihydro-4-quinazolinyl}acetic acid]",370 ± 70,66,25000 ± 5530,4428,920 ± 120,164,27000 ± 3270,4801,60 ± 40,11
Nc1nc(O)c2ncn(COC(CO)CO)c2n1 [Ganciclovir],4000 ± 900,,2200 ± 1200,,2200 ± 600,,2400 ± 2500,,1700 ± 200,
